Activity and IC50 data for 11 compounds are collected here from ChEMBL document CHEMBL1155654, “Acylated flavonol glycosides from the flower of Inula britannica” (J Nat Prod, 2000).

Assay [1] relates to HL-60. The assay can be described thus: Antioxidant activity in human HL60 cells assessed as inhibition of TPA-induced free radical formation. In kind it is functional, cell-based.
For assay [2], the system named is HL-60. The experiment in a line: Antioxidant activity in human HL60 cells assessed as reduction of cytochrome-c […]. In kind it is functional, cell-based.
The test system of assay [3] is Radical scavenging activity. The assay can be described thus: Antioxidant activity assessed as DPPH free radical scavenging activity. The assay is classed as functional. On the technique in general: DPPH is a stable violet radical that fades when it is reduced.

Values after ≈ are worked out from the molar mass of the structure shown. Active and inactive are the calls of the source. No cut-off for these calls is given here.

For the compound `COc1c(O[C@@H]2O[C@H](COC(=O)C(C)C)[C@@H](O)[C@H](O)[C@H]2O)cc2oc(-c3ccc(O)c(O)c3)c(O)c(=O)c2c1O`, the result in the assay with HL-60 [1] was Active. In addition, the figures for the concentration for half-maximal inhibition (IC50) (in the assay on HL-60 [2]; in assay [3]) were 10.6 µg/mL (≈ 18.8 µM) and 14.3 µg/mL (≈ 25.3 µM), respectively.
Take `COc1c(O[C@@H]2O[C@H](COC(=O)CC(C)C)[C@@H](O)[C@H](O)[C@H]2O)cc2oc(-c3ccc(O)c(O)c3)c(O)c(=O)c2c1O`: in the assay with HL-60 [1], the result was Active. The concentration for half-maximal inhibition (IC50) (usually the midpoint of a concentration-inhibition curve) in the assay with HL-60 [2] stood at 11.7 µg/mL (≈ 20.2 µM); in assay [3] it was 14.3 µg/mL (≈ 24.7 µM).
In the case of `CCC(C)C(=O)OC[C@H]1O[C@@H](Oc2cc3oc(-c4ccc(O)c(O)c4)c(O)c(=O)c3c(O)c2OC)[C@H](O)[C@@H](O)[C@@H]1O` (some centres undefined), the result in the assay with HL-60 [1] was Active. The IC50 is 11.2 µg/mL (≈ 19.4 µM) in the assay on HL-60 [2] and 23.5 µg/mL (≈ 40.6 µM) in assay [3].
In the case of `O=c1c(O[C@@H]2O[C@H](CO)[C@@H](O)[C@H](O)[C@H]2O)c(-c2ccc(O)cc2)oc2cc(O)cc(O)c12` [ASTRAGALIN], the concentration for half-maximal inhibition (IC50) in the assay on HL-60 [2] is greater than 50 µg/mL; in assay [3], greater than 100 µg/mL.
As to `COc1c(O)cc2oc(-c3ccc(O)c(O)c3)c(OC)c(=O)c2c1O` [AXILLARIN], the result in the assay with HL-60 [1] was Active. Further, the IC50 with HL-60 [2] came out at 2.9 µg/mL (≈ 8.37 µM); in assay [3] it was 12.4 µg/mL (≈ 35.8 µM).
As to `O=C(O)c1cc(O)c(O)c(O)c1` [GALLIC ACID], the IC50 in the assay on HL-60 [2] is 3.2 µg/mL (≈ 18.8 µM); in assay [3], 3.7 µg/mL (≈ 21.7 µM).
On to `COc1c(O[C@@H]2O[C@H](CO)[C@@H](O)[C@H](O)[C@H]2O)cc2oc(-c3ccc(O)cc3)cc(=O)c2c1O` [HISPIDULOSIDE], for which the IC50 is greater than 50 µg/mL with HL-60 [2] and greater than 100 µg/mL in assay [3].
Turning to `O=c1c(O)c(-c2ccc(O)cc2)oc2cc(O)cc(O)c12` [KAEMPFEROL], the half-maximal inhibitory concentration (IC50) in the assay with HL-60 [2] was determined as 10 µg/mL (≈ 34.9 µM); in assay [3], 74.4 µg/mL (≈ 260 µM).
On to `O=c1cc(-c2ccc(O)c(O)c2)oc2cc(O)cc(O)c12` [LUTEOLIN], for which the result in the assay on HL-60 [1] was Active. Moreover, the IC50 in the assay on HL-60 [2] is 12.1 µg/mL (≈ 42.3 µM); in assay [3], 7.2 µg/mL (≈ 25.2 µM).
Regarding `COc1c(O)cc2oc(-c3ccc(O)c(O)c3)c(O)c(=O)c2c1O` [PATULETIN], the result in the assay on HL-60 [1] was Active. The 50% inhibitory concentration (IC50) with HL-60 [2] was 10.1 µg/mL (≈ 30.4 µM); in assay [3], 9 µg/mL (≈ 27.1 µM).
Turning to `COc1c(O[C@@H]2O[C@H](CO)[C@@H](O)[C@H](O)[C@H]2O)cc2oc(-c3ccc(O)c(O)c3)c(O)c(=O)c2c1O` [PATULITRIN], in the assay on HL-60 [1], the result was Active. In addition, the IC50 in the assay on HL-60 [2] was 8.1 µg/mL (≈ 16.4 µM); in assay [3] it was 10.3 µg/mL (≈ 20.8 µM).
